Data on ten molecules can be found in ChEMBL document CHEMBL1156052, “Discovery of 1-[4-(3-chlorophenylamino)-1-methyl-1H-pyrrolo[3,2-c]pyridin-7-yl]-1-morpholin-4-ylmethanone (GSK554418A), a brain penetrant 5-azaindole CB2 agonist for the treatment of chronic pain” (J Med Chem, 2009).

Experiment [1] concerns the target T1, Cannabinoid receptor 1 (Homo sapiens, UniProt P21554). In words: Agonist activity at human recombinant cannabinoid CB1 receptor expressed in MMY23 Saccharomyces cerevisiae assessed as degradation of FDGlu to fluorescein after 24 hrs by spectrofluorimetry. Format: functional.
Experiment [2] addresses T2, Cannabinoid receptor 2 (Homo sapiens, UniProt P34972). In words: Agonist activity at human recombinant cannabinoid CB2 receptor expressed in MMY23 Saccharomyces cerevisiae assessed as degradation of FDGlu to fluorescein after 24 hrs by spectrofluorimetry. Format: functional.
For experiment [3], the target named is T2, Cannabinoid receptor 2. The experiment is described as follows: Agonist activity at human recombinant cannabinoid CB2 receptor expressed in MMY23 Saccharomyces cerevisiae assessed as degradation of FDGlu to fluorescein after 24 hrs by spectrofluorimetry relative to HU210. Format: functional.
The species entered for the next experiment is Homo sapiens. The experiment is described as follows: Selectivity ratio of EC50 for human recombinant cannabinoid CB1 receptor to EC50 for human recombinant cannabinoid CB2 receptor.
The target of experiment [4] is T1, Cannabinoid receptor 1. In words: Agonist activity at human recombinant cannabinoid CB1 receptor expressed in MMY23 Saccharomyces cerevisiae assessed as degradation of FDGlu to fluorescein after 24 hrs by spectrofluorimetry relative to HU210. In kind it is functional.
Experiment [5] deals with T1, Cannabinoid receptor 1. In words: Agonist activity at human recombinant cannabinoid CB1 receptor expressed in MMY23 Saccharomyces cerevisiae assessed as degradation of FDGlu to fluorescein at 30 uM after 24 hrs by spectrofluorimetry. Format: functional.

Structures are written as SMILES. Activity calls are given as the source filed them. The calls are words filed in the database; no cut-off is given here.

T2 sequence (P34972 whole entry): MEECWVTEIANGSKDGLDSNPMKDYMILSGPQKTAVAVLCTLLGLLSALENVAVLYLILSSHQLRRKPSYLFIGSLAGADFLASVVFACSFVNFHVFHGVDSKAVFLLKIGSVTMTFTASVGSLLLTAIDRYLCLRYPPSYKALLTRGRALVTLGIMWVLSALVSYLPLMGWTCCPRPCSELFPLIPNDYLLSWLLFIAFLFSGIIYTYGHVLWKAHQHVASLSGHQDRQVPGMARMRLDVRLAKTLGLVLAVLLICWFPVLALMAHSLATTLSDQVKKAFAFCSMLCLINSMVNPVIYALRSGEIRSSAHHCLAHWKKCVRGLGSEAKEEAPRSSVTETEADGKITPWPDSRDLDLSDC
T1 sequence (P21554 whole entry): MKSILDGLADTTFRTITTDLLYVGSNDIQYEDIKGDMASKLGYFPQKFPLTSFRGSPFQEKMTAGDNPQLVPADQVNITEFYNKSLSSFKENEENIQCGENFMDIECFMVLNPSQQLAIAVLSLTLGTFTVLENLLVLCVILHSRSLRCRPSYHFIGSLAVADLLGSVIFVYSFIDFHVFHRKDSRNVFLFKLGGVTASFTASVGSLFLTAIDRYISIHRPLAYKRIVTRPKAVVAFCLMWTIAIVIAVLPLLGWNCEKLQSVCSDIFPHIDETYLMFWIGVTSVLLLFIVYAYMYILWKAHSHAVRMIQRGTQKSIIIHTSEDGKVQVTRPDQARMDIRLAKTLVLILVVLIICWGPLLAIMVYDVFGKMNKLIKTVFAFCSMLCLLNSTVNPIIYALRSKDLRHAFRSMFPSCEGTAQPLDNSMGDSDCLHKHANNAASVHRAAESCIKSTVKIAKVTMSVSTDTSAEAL

One may read the EC50 as the concentration needed to bring the measured effect to its halfway point. In the case of `Cc1c[nH]c2c(Nc3cccc(Cl)c3)ncc(C(=O)N3CCC3)c12`, the figures for the EC50 at Cannabinoid receptor 1 [1] and on Cannabinoid receptor 2 [2] were above 30000 nM and 504 nM, respectively. On Cannabinoid receptor 2 [3], the Efficacy turned out to be 66%.

Regarding `Cc1c[nH]c2c(Nc3cccc(Cl)c3)ncc(C(=O)NCc3ccc(F)cc3)c12`, the EC50 on Cannabinoid receptor 1 [1] is above 30000 nM; at Cannabinoid receptor 2 [2] it was 145 nM. For the same molecule, on Cannabinoid receptor 2 [3], the Efficacy turned out to be 58%.

`Cc1c[nH]c2c(Nc3ccccc3Cl)ncc(C(=O)N3CCOCC3)c12`: the EC50 on Cannabinoid receptor 1 [1] was determined as 15800 nM; on Cannabinoid receptor 2 [2], 123 nM. The Ratio EC50 in the experiment filed under Homo sapiens is above 100. For the same molecule, the Efficacy turned out to be 56% at Cannabinoid receptor 1 [4] and 82% on Cannabinoid receptor 2 [3]. Moreover, on Cannabinoid receptor 1 [5], the outcome was inactive.

For `Cc1c[nH]c2c(Nc3cccc(Cl)c3)ncc(C(=O)N3CCCC3)c12`, the 50% effective concentration (EC50) at Cannabinoid receptor 1 [1] is above 30000 nM; at Cannabinoid receptor 2 [2] it was 153 nM. Moreover, on Cannabinoid receptor 2 [3], the Efficacy was 68%.

Consider `Cc1c[nH]c2c(Nc3cccc(Cl)c3)ncc(C(=O)NCC3CCOCC3)c12`, for which the EC50 on Cannabinoid receptor 1 [1] is above 30000 nM; on Cannabinoid receptor 2 [2] it was 265 nM. In addition, the Efficacy at Cannabinoid receptor 2 [3] amounted to 95%.

Regarding `Cc1c[nH]c2c(NC3CCOCC3)ncc(C(=O)N3CCOCC3)c12`, the EC50 at Cannabinoid receptor 1 [1] was above 30000 nM; on Cannabinoid receptor 2 [2], 3300 nM. Also, the Efficacy on Cannabinoid receptor 2 [3] turned out to be 84%.

For `COc1cccc(Nc2ncc(C(=O)N3CCOCC3)c3c(C)c[nH]c23)c1`, the results for the half-maximal effective concentration (EC50) on Cannabinoid receptor 1 [1] and on Cannabinoid receptor 2 [2] were 25100 nM and 48 nM, respectively. Further, the Efficacy on Cannabinoid receptor 1 [4] stood at 69%; on Cannabinoid receptor 2 [3], 83%. Besides, the outcome on Cannabinoid receptor 1 [5] was inactive.

For `Cc1cn(C)c2c(Nc3cccc(Cl)c3)ncc(C(=O)N3CCOCC3)c12`, the EC50 at Cannabinoid receptor 1 [1] worked out at 10000 nM; at Cannabinoid receptor 2 [2] it was 654 nM. Further, the values for the Efficacy on Cannabinoid receptor 1 [4] and at Cannabinoid receptor 2 [3] were 45% and 47%, respectively.

Regarding `Cc1c[nH]c2c(Nc3cccc(Cl)c3)ncc(C(=O)NC3CCOCC3)c12`, the 50% effective concentration (EC50) is above 30000 nM at Cannabinoid receptor 1 [1] and 1700 nM on Cannabinoid receptor 2 [2]. Besides, the Efficacy on Cannabinoid receptor 2 [3] was 79%.

As to `Cc1c[nH]c2c(Nc3cccc(Cl)c3)ncc(C(=O)N3CCCCC3)c12`, the 50% effective concentration (EC50) at Cannabinoid receptor 1 [1] came out at 4000 nM; on Cannabinoid receptor 2 [2], 14 nM. The Efficacy on Cannabinoid receptor 1 [4] turned out to be 32%; on Cannabinoid receptor 2 [3] it was 73%.
